Data from patent publication US20170107577A1, “Determining Cancer Aggressiveness, Prognosis and Responsiveness to Treatment” (THE COUNCIL OF THE QUEENSLAND INSTITUTE OF MEDICAL RESEARCH, priority 2014, published 2017).

Experiments:
Format in all cases: cell-based
[1] = tested on: cancer cell lines; assay: Garnett et al. drug screen re-analysed by TN/Agro/iBCR score; conditions: Garnett et al. study; for sensitivity (−log10[IC50]) of high TN score vs low TN score cell lines: dichotomy across median TN score; for sensitivity of high iBCR score vs low iBCR score cell lines: dichotomy across median iBCR score
Description: FIG. 24: Drug sensitivity of cancer cell lines according to the TN score. The large published study by Garnett et al. was investigated where the TN score was calculated for each cell line in the study as described in Methods. The cell lines were classified as high or low TN score according to the median TN score to compare the sensitivity of low TN score cell lines (white boxes) and high TN score cell lines (red boxes). Graphs were prepared using GraphPad® Prism showing sensitivity as −log 10[IC50] in boxes (with median marked by a line) and whiskers (marking the 1st and 3rd quartiles and outliers as dots according to Tukey method for plotting the whiskers and outliers). Unpaired two-tailed t test was used for statistical analysis.
FIG. 30: Drug sensitivity of cancer cell lines according to the iBCR score. The large published study by Garnett et al. was investigated where the iBCR score was calculated for each cell line from the Agro and TN scores. The cell lines were classified as high or low iBCR score according to the median iBCR score to compare the sensitivity of low iBCR score cell lines (white boxes) and […] (red boxes). Results according to low and high Agro score were also included.
(§1) Two large studies which treated large panels of cancer cell lines with large panels of anticancer drugs were investigated to determine whether cell lines with high Agro, TN or iBCR scores show different sensitivity to particular anticancer drugs in comparison to cancer cell lines with low Agro, TN or iBCR scores. Briefly, the datasets of gene expression profiling from Genentech (mRNA Cancer Cell Line Profiles GSE10843), Pfizer (Pfizer Molecular Profile Data for Cell Line GSE34211) and Broad Institute/Novartis (Cancer Cell Line Encyclopedia [CCLE] GSE3613) were obtained from GEO and imported into ArrayTools as described earlier. The Agro, TN and iBCR scores for all the cell lines profiled were calculated and cell lines were assigned as high or low for each of the scores based on dichotomy across the median in each dataset. For cell lines which were profiled in more than one dataset, the average scores were used. […] Statistical significance was determined from unpaired two-tailed t-test using GraphPad® Prism.
(§2) In the second approach, published studies which surveyed panels of molecular drugs against, cancer cell lines were analyzed. The Cancer Cell Line Encyclopedia (CCLE) study investigated the pharmacological profiles for 24 anticancer drugs across 479 cancer cell lines which were also profiled with gene expression arrays. We calculated the TN score for each cell line in this study and compared the sensitivity of these cell lines to the anticancer drugs according to the TN score. […] In a similar method, we also analyzed a second large study. Garnett et al., which tested 130 drugs against more than 600 cancer cell lines.

[2] = tested on: breast cancer cell lines; assay: Screen of 24 anti-cancer drugs on 10 breast cancer cell lines (MTS/MTA, six days) re-analysed by iBCR score; conditions: 5 high vs 5 low iBCR score cell lines
Description: FIG. 47: The sensitivity of breast cancer cell lines treated with 24 drugs according to the iBCR score. Breast cancer cell lines (10 cell lines) were cultured in the absence or presence of escalating doses of 24 small molecular anti-cancer drugs. This published study was re-analyzed to compare the sensitivity (calculated as the −log IC50) between high iBCR score cell lines (5 cell lines: BT-549, MDA-MB-231, MDA-MB-436, MDA-MB-468 and BT-20) to low iBCR score cell lines (5 cell lines: Hs.578T, BT-474, MCF-7, T-47D, and ZR-75-1). The iBCR scores were calculated from the Agro and TN scores using the published gene expression dataset for 51 breast cancer cell lines (Neve et al., Cancer Cell, 2006). […] Statistical comparison was performed in GraphPad® Prism using two tailed unpaired t-test.
Breast cancer cell lines (10 cell lines); BT-549, MDA-MB-231, MDA-MB-436, MDA-MB-468, BT-20, Hs.578T, BT-474, MCF-7, T-47D, and ZR-75-1, were cultured in the absence or presence of escalating doses of 24 anti-cancer drugs. The survival of cells was determined six days in comparison to untreated cells using the MTS/MTA assay. The response of the cell lines to the drugs was analyzed in GraphPad® Prism using a dose response curve to calculate the log10 of IC50 (IC50 is the dose required to kill 50% of the cells). Sensitivity was presented as the −log10[IC50]. This drug screen which we published previously (Al-Ejeh et al., Oncotarget, 2014) was re-analyzed according to the iBCR score. The gene expression datasets of 51 breast cancer cell lines by Neve et al. (Cancer Cell, 2006), was analyzed to calculate the Agro and TN scores for each cell line to calculate the iBCR score. Each cell line was assigned as low of high iBCR score by dichotomy across the median of all the cell lines in the Neve et al. dataset. Based on the low or high iBCR score classification, the sensitivity of the 10 cell lines used in our screen was compared between high iBCR score cell lines (5 cell lines) to low iBCR score cell lines (5 cell lines). […] PLC[…] (U73122), INK (SP600125), PAK1 MEK (AS703026 and AZD6244), ERK5 (XMD 8-92 and BIX02188). HSP90 (17-AAa PF0429113 and AUY922), IGF1R (GSK1904529A) and EGFR (Afatinib). The results from our screen are in agreement with the higher sensitivity of high iBCR score cancer cell lines to HSP90, IGF1R and MEK inhibitors we identified from the two previously published large cell line studies.

[3] = tested on: cancer cell lines; assay: Cancer Cell Line Encyclopedia (CCLE) drug sensitivity re-analysed by TN/Agro/iBCR score; conditions: CCLE study; for sensitivity (IC50) of high TN score vs low TN score cell lines: dichotomy across median TN score; for sensitivity (IC50) of high iBCR score vs low iBCR score cell lines: dichotomy across median iBCR score
Description: (§3) FIG. 35: Sensitivity of cancer cell lines to anticancer drugs according to the TN score in the Cancer Cell Line Encyclopedia (CCLE) study. The gene expression data of the cancer cell lines in the study were analyzed to calculate the TN score for each cell line and were assigned to low or high TN score by dichotomy across the median. The IC50 for each of the 24 drugs used in the CCLE study was compared between high and low TN score cell lines and the data shown are those with statistical differences based on unpaired two-tailed t-test performed using GraphPad® Prism.
as §3, with “FIG. 42: Sensitivity of” for “FIG. 35: Sensitivity of”, “to the iBCR score in” for “to the TN score in”, “or high iBCR score by” for “or high TN score by”, “and low iBCR score cell” for “and low TN score cell”, “GraphPad® Prism. As this analysis was also done for the TN score (FIG. 35), results from analysis of the Agro score are also shown in the top row.” for “GraphPad® Prism.”
as §1, §2

Structure (SMILES) | sensitivity (−log10[IC50]) of high TN score vs low TN score cell lines [1] | sensitivity of high iBCR score vs low iBCR score cell lines [1] | other results
CC1(C)CCC(c2ccc(Cl)cc2)=C(CN2CCN(c3ccc(C(=O)NS(=O)(=O)c4ccc(N[C@H](CCN5CCOCC5)CSc5ccccc5)c(S(=O)(=O)C(F)(F)F)c4)cc3)CC2)C1 [ABT-263] | less sensitive | less sensitive | 
C[C@]1(c2nc3c(C(N)=O)cccc3[nH]2)CCCN1 [ABT-888] | less sensitive | less sensitive | 
O=C(NC[C@H](O)CO)c1ccncc1Nc1ccc(I)cc1F [AS703026] |  |  | sensitivity (−log10[IC50]) of high iBCR score vs low iBCR score breast cancer cell lines [2]: significantly more sensitive
CC1=C(/C=C/C(C)=C/C=C/C(C)=C/C(=O)O)C(C)(C)CCC1 [ATRA, all-trans retinoic acid] | less sensitive | less sensitive | 
CCNC(=O)c1noc(-c2cc(C(C)C)c(O)cc2O)c1-c1ccc(CN2CCOCC2)cc1 [AUY922] |  |  | sensitivity (−log10[IC50]) of high iBCR score vs low iBCR score breast cancer cell lines [2]: significantly more sensitive
Cn1cnc2c(F)c(Nc3ccc(Br)cc3Cl)c(C(=O)NOCCO)cc21 [AZD6244] |  |  | sensitivity (−log10[IC50]) of high iBCR score vs low iBCR score breast cancer cell lines [2]: significantly more sensitive
O=C(c1cc(Cc2n[nH]c(=O)c3ccccc23)ccc1F)N1CCN(C(=O)C2CC2)CC1 [AZD-2281] |  | less sensitive | 
CC[C@@H]1C(=O)N(C)c2cnc(Nc3ccc(C(=O)NC4CCN(C)CC4)cc3OC)nc2N1C1CCCC1 [B1-2536] |  | more sensitive | sensitivity of high Agro score vs low Agro score cell lines [1]: more sensitive
COc1ccc(-c2cc3nccn3c(Nc3ncccc3C(N)=O)n2)cc1OC [BAY613606] |  | less sensitive | 
Cn1c(=O)n(-c2ccc(C(C)(C)C#N)cc2)c2c3cc(-c4cnc5ccccc5c4)ccc3ncc21 [BEZ235] | more sensitive | more sensitive | 
Cc1ccc(-n2nc(C(C)(C)C)cc2NC(=O)Nc2ccc(OCCN3CCOCC3)c3ccccc23)cc1 [BIRB 0796] | less sensitive | less sensitive | 
Cc1cc(N2CCOCC2)cc2[nH]c(-c3c(NC[C@@H](O)c4cccc(Cl)c4)cc[nH]c3=O)nc12 [BMS-536924] | more sensitive | more sensitive | 
CN(NC(=O)CC(=O)NN(C)C(=S)c1ccccc1)C(=S)c1ccccc1 [Elesclomol] | sensitive |  | 
C#Cc1cccc(Nc2ncnc3cc(OCCOC)c(OCCOC)cc23)c1 [Erlotinib] |  |  | sensitivity (IC50) of high TN score vs low TN score cell lines [3]: more sensitive
CCc1cc(Nc2nccc(-c3c(-c4ccc(OC)c(C(=O)Nc5c(F)cccc5F)c4)nc4ccccn34)n2)c(OC)cc1N1CCC(N2CCN(S(C)(=O)=O)CC2)CC1 [GSK1904529A] |  |  | sensitivity (−log10[IC50]) of high iBCR score vs low iBCR score breast cancer cell lines [2]: significantly more sensitive
CC(C)(C)Cn1c(N)nc2ccc(-c3[nH]c(C(C)(C)C)nc3-c3ccc(F)cc3)nc21 [LY2228820] |  |  | sensitivity (−log10[IC50]) of high iBCR score vs low iBCR score breast cancer cell lines [2]: significantly more sensitive
CS(=O)(=O)CCNCc1ccc(-c2ccc3ncnc(Nc4ccc(OCc5cccc(F)c5)c(Cl)c4)c3c2)o1 [Lapatinib] |  |  | sensitivity (IC50) of high TN score vs low TN score cell lines [3]: more sensitive
Cc1cn(-c2cc(NC(=O)c3ccc(C)c(Nc4nccc(-c5cccnc5)n4)c3)cc(C(F)(F)F)c2)cn1 [Nilotinib] |  | less sensitive | sensitivity (IC50) of high TN score vs low TN score cell lines [3]: less sensitive; sensitivity (IC50) of high iBCR score vs low iBCR score cell lines [3]: less sensitive
C[C@]1(O)C[C@@H](c2nc(-c3ccc4ccc(-c5ccccc5)nc4c3)c3c(N)nccn32)C1 [OSI-906] | less sensitive |  | 
CC1(C)CC(=O)c2c(C(F)(F)F)nn(-c3ccc(C(N)=O)c(N[C@H]4CC[C@H](OC(=O)CN)CC4)c3)c2C1 [PF0429113] |  |  | sensitivity (−log10[IC50]) of high iBCR score vs low iBCR score breast cancer cell lines [2]: significantly more sensitive
COc1cc(F)c(F)c(Nc2ccc(I)cc2F)c1NS(=O)(=O)C1(C[C@H](O)CO)CC1 [RDEA-119] | more sensitive |  | 
Cn1cc(C2=C(c3ccc(Cl)cc3Cl)C(=O)NC2=O)c2ccccc21 [SB216763] |  |  | sensitivity of high Agro score vs low Agro score cell lines [1]: less sensitive
COc1cc(N2CCC(N3CCN(C)CC3)CC2)ccc1Nc1ncc(Cl)c(Nc2ccccc2S(=O)(=O)C(C)C)n1 [TAE684] |  |  | sensitivity (IC50) of high TN score vs low TN score cell lines [3]: less sensitive; sensitivity (IC50) of high iBCR score vs low iBCR score cell lines [3]: less sensitive
CN1CCN(c2ccc3nc(-c4c(N)c5c(F)cccc5[nH]c4=O)[nH]c3c2)CC1 [TKI258] |  |  | sensitivity (IC50) of high iBCR score vs low iBCR score cell lines [3]: less sensitive
COc1ccc2c(c1)CC[C@@H]1[C@@H]2CC[C@]2(C)[C@@H](NCCCCCCN3C(=O)C=CC3=O)CC[C@@H]12 [U73122] |  |  | sensitivity (−log10[IC50]) of high iBCR score vs low iBCR score breast cancer cell lines [2]: significantly more sensitive
O=C(CCCCCCC(=O)Nc1ccccc1)NO [Vorinostat] |  | less sensitive | 
CCOc1cc(N2CCC(O)CC2)ccc1Nc1ncc2c(n1)N(C)c1ccccc1C(=O)N2C [XMD 8-92] |  |  | sensitivity (−log10[IC50]) of high iBCR score vs low iBCR score breast cancer cell lines [2]: significantly more sensitive
CN(C)C(=N)N=C(N)N [metformin] | less sensitive | less sensitive | 
CN(Cc1cnc2nc(N)nc(N)c2n1)c1ccc(C(=O)N[C@@H](CCC(=O)O)C(=O)O)cc1 [methotrexate] | less sensitive | less sensitive | 
